# US7361690B2, “Compositions and methods for the treatment of urinary incontinence” (Gruenenthal GmbH, priority 2000, dated 2008)
# Marks after values point to notes of the source that are not given here.
# Legend:
# [1] = system: female Sprague-Dawley rats; test: Cystometry tests on conscious fresh rats; type: in vivo, rat; conditions: effect maximum, mean of 3 micturition cycles
# Protocol: Cystometry investigations were carried out on fresh female Sprague-Dawley rats according to the method of Ishizuka et. al. ((1997), Naunyn-Schmiedeberg's Arch. Pharmacol. 355: 787-793). Three days after implantation of bladder and venous catheters the animals were investigated in the conscious state while freely moving. The bladder catheter was connected to a pressure gauge and an injection pump. The animals were placed in metabolic cages that enable the volume of urine to be measured. Physiological saline solution was infused (10 ml/hour) into the emptied bladder and the bladder pressure and volume of urine were continuously recorded. After a stabilization phase a 20-minute phase was recorded that was characterized by normal, reproducible micturition cycles. The following parameters among others were measured: • threshold pressure (TP), bladder pressure immediately before micturition, • bladder capacity (BC), residual volume after prior micturition plus volume of infused solution during the filling phase, • intercontraction interval (ICI), the time interval between consecutive micturition.
# An increase in the threshold pressure (TP) indicates an important therapeutic effect in one of the medical conditions suitable for treatment with the method of the invention. Also, the intercontraction interval (ICI) is an important parameter for measuring the physiological effectiveness of a substance in the treatment of urinary incontinence, as is the bladder capacity (BC). In this connection, on account of the widely differing causes of the symptoms of these disease patterns it is not necessary to influence positively all three parameters in order for a medicament to be effective.
# After recording three reproducible micturition cycles to provide a baseline value, the test substances 24 (1.0; 3.0; 5.0 mg/kg), 25 (1.5 mg/kg) and 26 (3.0 mg/kg) in a vehicle comprising 0.9% NaCl were applied intravenously and the effect on the cystometric parameters was recorded at 90 to 120 minutes. In the effect maximum the mean value of 3 micturition cycles was determined and recorded as a percentage change compared to the baseline value (Table 1).
# [2] = system: narcotized ventilated rats; test: Cystometry investigations in narcotized fresh rats (suppression of rhythmic spontaneous bladder contractions); type: in vivo, rat; conditions: intravenous, cumulative, lowest dose at which contractions disappeared for the first time over a period of 10 minutes
# Protocol: The cystometric investigation was carried out on fresh female rats according to the method of Kimura et al. (Kimura et al., 1996, Int. J. Urol. 3: 218-227). The abdomen of narcotized ventilated rats is opened and the ureter is ligated. The urine is drawn off from the kidneys. A catheter is inserted into the bladder and secured in place. […] The test substance is applied intravenously in a cumulative manner after stable starting values were reached. An effect on the bladder function is manifested by the suppression of the spontaneous contractions. The disappearance of the contractions over a period of 10 minutes serves as a parameter for their suppression.
# With all the substances listed there was a measurable suppression of the spontaneous contractions in rats.
Molecule,"BC Bladder Capacity, change compared to the baseline value ([1]; 3.0 mg/kg iv)","ICI Inter-Contraction Interval, change compared to the baseline value ([1]; 3.0 mg/kg iv)","TP Threshold Pressure, change compared to the baseline value ([1]; 3.0 mg/kg iv)",Mean Value of Lowest Dose for Contraction Suppression [2],further results
"COc1cccc([C@@]2(O)C[C@H](O)CC[C@@H]2CN(C)C)c1.Cl (racemic) [Compound 24, (1RS,3RS,6RS)-6-dimethylaminomethyl-1-(3-methoxyphenyl)-cyclohexane-1,3-diol, hydrochloride]",−16.0%*,−16%*,+94.0%**,–,"BC Bladder Capacity, change compared to the baseline value ([1]; 1.0 mg/kg iv): −8.0%; ICI Inter-Contraction Interval, change compared to the baseline value ([1]; 1.0 mg/kg iv): −15%**; TP Threshold Pressure, change compared to the baseline value ([1]; 1.0 mg/kg iv): +44.0%***; BC Bladder Capacity, change compared to the baseline value ([1]; 5.0 mg/kg iv): −26.0%; ICI Inter-Contraction Interval, change compared to the baseline value ([1]; 5.0 mg/kg iv): −21.2%; TP Threshold Pressure, change compared to the baseline value ([1]; 5.0 mg/kg iv): +69.0%*"
"CN(C)C[C@H]1CC[C@@H](O)C[C@]1(O)c1cccc(O)c1.Cl (racemic) [Compound 26, (1RS,3RS,6RS)-6-dimethylaminomethyl-1-(3-hydroxyphenyl)-cyclohexane-1,3-diol, hydrochloride]",+29.0%***,+27.0%*,+86.0%***,–,–
"COc1cccc([C@@]2(O)C[C@H](O)CC[C@@H]2CN(C)C)c1.Cl [Compound 25, (+)-(1R,3R,6R)-6-dimethylaminomethyl-1-(3-methoxyphenyl)-cyclohexane-1,3-diol, hydrochloride]",–,–,–,–,"BC Bladder Capacity, change compared to the baseline value ([1]; 1.5 mg/kg iv): −14.0%*; ICI Inter-Contraction Interval, change compared to the baseline value ([1]; 1.5 mg/kg iv): −9.0%; TP Threshold Pressure, change compared to the baseline value ([1]; 1.5 mg/kg iv): +62.0%*"
"COc1cccc([C@@]2(O)C[C@@H](O)CC[C@@H]2CN(C)C)c1.Cl (racemic) [Compound 27, (1RS,3SR,6RS)-6-dimethylaminomethyl-1-(3-methoxyphenyl)-cyclohexane-1,3-diol, hydrochloride]",–,–,–,115 (n = 2) mg/kg,–
"(1RS,2RS,5RS)-3-(2-dimethylaminomethyl-1-hydroxy-5-trifluoromethylcyclohexyl)-phenol,hydrochloride [Compound 29]",–,–,–,23.3 (n = 3) mg/kg,–
"C[C@H]1CC[C@H](CN(C)C)[C@@](O)(c2cccc(O)c2)C1.Cl [Compound 28, (+)-(1R,2R,5S)-3-(2-dimethylaminomethyl-1-hydroxy-5-methylcyclohexyl)-phenol, hydrochloride]",–,–,–,16.7 (n = 3) mg/kg,–
